Type in all cases: cell-based
For test [1], the system named is Pseudomonas aeruginosa. As to the kind of experiment: In vitro antibacterial activity, minimum inhibitory concentration (MIC). The procedure: (§1) Compounds: The compounds prepared in the above examples and comparative examples. All test compounds were dissolved and diluted with DMSO, and the final concentrations were prepared as 64, 32, 16, 8, 4, 2, 1, 0.5, 0.25, 0.125, 0.0625 μg/mL in the experiment.
(§2) Bacterial strains: 6 strains of Acinetobacter baumannii (codenames: HDBAB-YK4, HDBAB-YK7, HDBAB-YK12, HDBAB-YK16, HDBAB_OXA_7, ATCC 19606), 2 strains of Pseudomonas aeruginosa (codenames: HDBPA-YK9, HDBPA)-YK15), 1 strain of Escherichia coli (codename: CLB30048), all provided by HD Biosciences (Shanghai) Co., Ltd.
(§3) Medium: Trypticase soy agar (TSA) (BD BBL 211043), and Cation-adjusted Mueller Hinton broth (CAMHB) (BD BBL212322).
(§4) The bacteria used for the minimum inhibitory concentration (MIC) test were stored frozen at −80° C., and needed 2 days to recover before use. A small amount of frozen bacteria was scraped with a sterile inoculation loop for streak inoculation on a TSA solid medium petri dish. The dish was placed in an ordinary incubator at 35±2° C. for 20-24 hours. 5-10 Colonies with similar morphologies were picked from the above-mentioned petri dish with a sterile inoculating loop for streak inoculation again on a TSA solid medium petri dish. The dish was then placed in an ordinary incubator at 35±2° C. for 20-24 hours.
(§5) 1.02×CAMHB liquid medium was taken out from a 4° C. refrigerator and placed at room temperature for preheating. 5-10 Individual bacterial colonies were picked from the solid petri dish of the above Section 2.1 and re-suspended in 500 μL of 0.9% NaCl, and then the OD600 was adjusted to 0.1-0.15 with a spectrophotometer. Then the bacteria were diluted 400 times with 1.02×CAMHB (two-step dilution method: firstly diluting 10 times, then diluting 40 times).
(§6) The number of inoculated bacteria can be obtained by counting the colonies on the petri dish (see Section 2.4).
(§7) One compound was arranged in each row of a 96-well test plate: the highest test concentration for each compound was 64 μg/mL, which was diluted by a factor of two.
(§8) Growth control (GC): 1.02×CAMHB and dimethyl sulfoxide (DMSO) containing bacterial inoculum, no compound.
(§9) Sterile control (SC): Containing 1.02×CAMHB and DMSO, no compound.
(§10) All test compounds were dissolved and diluted with DMSO. 50 μL of 3.2 mg/mL of each test compound was transferred to the initial well (A1-H1) of the dilution plate, and then 25 μL of DMSO was transferred to other wells. The test compounds were sequentially diluted by a factor of 2 from column 1 to column 11 (i.e. drawing 25 μL of test compound from column 1 to column 2 and mixing well, and then drawing 25 μL of test compound from column 2 to column 3 and mixing well, and then drawing 25 μL of test compound from column 3 to column 4 and mixing well, and so on, until diluting to column 11).
(§11) 2 μL of the compound was transferred from the compound plate to the corresponding well of the test plate. Meanwhile, 2 μL of 100% DMSO was transferred to the compound-free wells (the GC and SC wells).
(§12) 98 μL of the corresponding bacterial inoculum was added to the test plate (except for the SC well).
(§13) 98 μL of 1.02×CAMHB medium was added to the SC well of the test plate.
(§14) After the system was added, the test plate was covered with a sterile lid, centrifuged at 800 rpm for 30 seconds, then shaken on a plate shaker at 400 rpm for 1 minute for mixing well, and then placed in an incubator at 35±2° C. for 20 hours.
(§15) The inoculated bacteria were gradient diluted by 10 folds with the liquid medium, from 10^−1 to 10^−3. 100 μL of the above bacterial dilution was spread evenly on a TSA petri dish, 2 replicates for each dilution. After the medium was absorbed by TSA for 10 minutes, the petri dishes were reversed and incubated in an incubator at 35±2° C. for 24 hours.
(§16) A compound management system was turned on to check whether the barcode and compound arrangement of each test plate were correct. […]

Test [2] relates to Escherichia coli. The description is as above. As to conditions: strain CLB30048, read-out: MIC. The protocol: as §1, §2, §3, §4, §5, §6, §7, §8, §9, §10, §11, §12, §13, §14, §15, §16
Test [3] has as its system Acinetobacter baumannii. The test is described as above. The procedure:
as §1, §2, §3, §4, §5, §6, §7, §8, §9, §10, §11, §12, §13, §14, §15, §16

Test [4] has as its system drug-resistant Acinetobacter baumannii. In words: MIC in combination with Relebactam. An excerpt: In addition, the inventors of the present invention also tested the inhibitory activities of the compound of Example 1 and Compound C, respectively, in combination with Relebactam on drug-resistant Acinetobacter baumannii (the experimental method was the same as that in Experimental Example 1).

Test [5] has as its system Acinetobacter baumannii, Pseudomonas aeruginosa, and Escherichia coli. As to the kind of experiment: In vitro antibacterial activity, summary statements over all strains of Experimental Example 1. As to conditions: method of Experimental Example 1. The procedure: as §1, §2
The minimum inhibitory concentration (MIC) of each compound was recorded according to the guidelines of the Clinical and Laboratory Standards Institute.

The values below come from patent US20220002288A1, “MONOBACTAM COMPOUNDS AND USE THEREFOR” (priority 2018, published 2022).

For orientation: MIC means the least concentration at which growth counts as inhibited.

Each structure is given as a SMILES string. Structures can show the parent of a compound that is named as a salt.

In the case of `CC1(C)[C@H](NC(=O)/C(=N\O[C@@H](COc2ccc(C(=O)Nc3cn(CCCN)[n+](CC4CNC4)c3)cc2)C(=O)O)c2csc(N)n2)C(=O)N1OS(=O)(=O)[O-]` [Example 1, (S)-3-((Z)-2-(((S)-2-(4-((1-(3-aminopropyl)-2-(azetidin-3-ylmethyl)-1H-pyrazol-2-ium-4-yl)carbamoyl)phenoxy)-1-carboxyethoxy)imino)-2-(2-aminothiazol-4-yl)acetylamino)-2,2-dimethyl-4-oxoazetidin-1-yl Sulfate], the MIC in test [1] (strain HDBPA-YK9) came to 2 µg/mL; in test [1] (strain HDBPA-YK15) it was 32 µg/mL; in test [2] it was 2 µg/mL; in test [3] (ATCC19606, strain ATCC 19606) it was 2 µg/mL; in test [3] (strain HDBAB-YK4), 2 µg/mL; in test [3] (strain HDBAB-YK7), 0.25 µg/mL. The minimum inhibitory concentration (MIC) in test [3] (strain HDBAB-YK12) stood at 2 µg/mL; in test [3] (strain HDBAB-YK16), 8 µg/mL; in test [3] (strain HDBAB_OXA_7), 4 µg/mL; in test [4] (strain HDBAB-YK12, in combination with 4 μg/mL Relebactam), 2 µg/mL; in test [4] (strain HDBAB-YK16, in combination with 4 μg/mL Relebactam), 4 µg/mL; in test [4] (strain HDBAB_OXA_7, in combination with 4 μg/mL Relebactam), 2 µg/mL. The “in vitro antibacterial activity (in words)” value in test [5] is listed as “excellent antibacterial activity”.
